In patent US20260022142A1, “MACROCYCLIC IMMUNOMODULATORS” (Bristol-Myers Squibb Company, priority 2022, published 2026) one finds IC50 data, which are given here for eight compounds.

In general, IC50 refers to the concentration that gives 50% inhibition.

Molecules are shown by their SMILES. Bridge positions count the residues as written; N and C are the ends. Square brackets hold non-standard residues; d marks the D form. Peptide text beside a SMILES is read from it. * marks the point of attachment. Phe(4-COOH) = N[C@@H](Cc1ccc(C(=O)O)cc1)C(=O)O; Bip = N[C@@H](Cc1ccc(-c2ccccc2)cc1)C(=O)O; NH(CH2)14COOH = O=C(O)CCCCCCCCCCCCCCN*; Phe(3-Me) = Cc1cccc(C[C@H](N)C(=O)O)c1; NH(CH2)12COOH = O=C(O)CCCCCCCCCCCCN*; Val(3-OH) = CC(C)(O)[C@H](N)C(=O)O; Cha = N[C@@H](CC1CCCCC1)C(=O)O; Carboxymethyl = O=C(O)C*; Orn = NCCC[C@H](N)C(=O)O; Aun = NCCCCCCCCCCC(=O)O; Dab = NCC[C@H](N)C(=O)O; Nva = CCC[C@H](N)C(=O)O; Abu = CC[C@H](N)C(=O)O; AEEA = NCCOCCOCC(=O)O

For this assay, the target named is T1, PD-1/PD-L1 interaction (PE-labeled human PD-L1-Ig binding to Jurkat cell line over-expressing human PD-1) (Homo sapiens, UniProt Q15116).
T1 construct: expressed in transfected cells; host or cells: Jurkat
T1 sequence (Q15116 25-288): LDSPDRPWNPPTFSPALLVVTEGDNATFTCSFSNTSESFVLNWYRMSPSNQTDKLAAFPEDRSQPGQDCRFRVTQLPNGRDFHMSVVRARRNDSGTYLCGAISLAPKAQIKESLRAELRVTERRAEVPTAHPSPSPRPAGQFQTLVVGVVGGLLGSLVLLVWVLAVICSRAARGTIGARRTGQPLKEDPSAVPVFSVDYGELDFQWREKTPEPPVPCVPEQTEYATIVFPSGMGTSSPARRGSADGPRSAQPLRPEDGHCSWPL
The assay is described as follows: Jurkat-PD-1 Cell Binding High-Content Screening Assay (CBA). It is filed as cell-based. The conditions noted are these: Jurkat cell line over-expressing human PD-1; PE-labeled PD-L1-Ig 20 nM final; read-out: Jurkat hPD1-PDL1 IC50. The method, boiled down: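 First, compound is added to PD-1-expressing Jurkat cells in serum-containing DMEM and left 2 h at 37° C. Next, PE-conjugated PD-L1-Ig is introduced at 20 nM final concentration for 1 hour. Finally, cells are fixed in 4% paraformaldehyde with Hoechst 33342, washed and imaged.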
For `Cc1cccc(C[C@@H]2NC(=O)[C@H](CC(=O)O)NC(=O)[C@H](Cc3ccc(OCC(=O)O)cc3)NC(=O)[C@H](CCN)NC(=O)CSC[C@@H](C(=O)N[C@@H](CCN)C(=O)NCCOCCOCC(=O)NCCCCCCCCCCCCC(=O)O)NC(=O)[C@H](Cc3c[nH]cn3)NC(=O)[C@H](C(C)(C)O)NC(=O)[C@H](CC3CCCCC3)NC(=O)[C@H](CCN)NC(=O)[C@@H](CC(C)C)NC(=O)[C@H](CCCN)NC(=O)[C@H](Cc3ccc(OCC(=O)O)cc3)NC(=O)[C@H](Cc3ccc(-c4ccccc4)cc3)NC(=O)[C@H](Cc3ccc(OCC(=O)O)cc3)NC2=O)c1` [Compound 2871] ({CH2CO}-[Dab]Y(Carboxymethyl)D[Phe(3-Me)]Y(Carboxymethyl)[Bip]Y(Carboxymethyl)[Orn][dL][Dab][Cha][Val(3-OH)]HC[Dab][AEEA]-{NH(CH2)12COOH}; thioether N-14), the IC50 was found to be 16.9 nM.
For `Cc1cccc(C[C@@H]2NC(=O)[C@H](CC(=O)O)NC(=O)[C@H](Cc3ccc(OCC(=O)O)cc3)NC(=O)[C@H](CCN)NC(=O)CSC[C@@H](C(=O)N[C@@H](CCN)C(=O)NCCOCCOCC(=O)NCCCCCCCCCCCCCCC(=O)O)NC(=O)[C@H](Cc3c[nH]cn3)NC(=O)[C@H](C(C)(C)O)NC(=O)[C@H](CC3CCCCC3)NC(=O)[C@H](CCN)NC(=O)[C@@H](CC(C)C)NC(=O)[C@H](CCCN)NC(=O)[C@H](Cc3ccc(OCC(=O)O)cc3)NC(=O)[C@H](Cc3ccc(-c4ccccc4)cc3)NC(=O)[C@H](Cc3ccc(OCC(=O)O)cc3)NC2=O)c1` [Compound 2872] ({CH2CO}-[Dab]Y(Carboxymethyl)D[Phe(3-Me)]Y(Carboxymethyl)[Bip]Y(Carboxymethyl)[Orn][dL][Dab][Cha][Val(3-OH)]HC[Dab][AEEA]-{NH(CH2)14COOH}; thioether N-14) the value was 83.8 nM; for `Cc1cccc(C[C@@H]2NC(=O)[C@H](CC(=O)O)NC(=O)[C@H](Cc3ccc(OCC(=O)O)cc3)NC(=O)[C@H](CCN)NC(=O)CSC[C@@H](C(=O)N[C@@H](CCN)C(=O)NCCOCCOCC(=O)NCCOCCOCC(=O)NCCCCCCCCCCCCC(=O)O)NC(=O)[C@H](CO)NC(=O)[C@H](C(C)(C)O)NC(=O)[C@H](CC3CCCCC3)NC(=O)[C@H](Cc3c[nH]cn3)NC(=O)[C@@H](CC(C)C)NC(=O)[C@H](CCCN)NC(=O)[C@H](Cc3ccc(OCC(=O)O)cc3)NC(=O)[C@H](Cc3ccc(-c4ccccc4)cc3)NC(=O)[C@H](Cc3ccc(OCC(=O)O)cc3)NC2=O)c1` [Compound 2873] ({CH2CO}-[Dab]Y(Carboxymethyl)D[Phe(3-Me)]Y(Carboxymethyl)[Bip]Y(Carboxymethyl)[Orn][dL]H[Cha][Val(3-OH)]SC[Dab][AEEA][AEEA]-{NH(CH2)12COOH}; thioether N-14), 34.5 nM; for `Cc1cccc(C[C@@H]2NC(=O)[C@H](CC(=O)O)NC(=O)[C@H](Cc3ccc(OCC(=O)O)cc3)NC(=O)[C@H](CCN)NC(=O)CSC[C@@H](C(=O)N[C@@H](CCN)C(=O)NCCOCCOCC(=O)NCCCCCCCCCCCCC(=O)O)NC(=O)[C@H](CO)NC(=O)[C@H](C(C)(C)O)NC(=O)[C@H](CC3CCCCC3)NC(=O)[C@H](Cc3c[nH]cn3)NC(=O)[C@@H](CC(C)C)NC(=O)[C@H](CCCN)NC(=O)[C@H](Cc3ccc(OCC(=O)O)cc3)NC(=O)[C@H](Cc3ccc(-c4ccccc4)cc3)NC(=O)[C@H](Cc3ccc(OCC(=O)O)cc3)NC2=O)c1` [Compound 2875] ({CH2CO}-[Dab]Y(Carboxymethyl)D[Phe(3-Me)]Y(Carboxymethyl)[Bip]Y(Carboxymethyl)[Orn][dL]H[Cha][Val(3-OH)]SC[Dab][AEEA]-{NH(CH2)12COOH}; thioether N-14), 8.3 nM.
For the compound `Cc1cccc(C[C@@H]2NC(=O)[C@H](CC(=O)O)NC(=O)[C@H](Cc3ccc(OCC(=O)O)cc3)NC(=O)[C@H](CCN)NC(=O)CSC[C@@H](C(=O)N[C@@H](CCN)C(=O)NCCOCCOCC(=O)NCCCCCCCCCCCCCCC(=O)O)NC(=O)[C@H](CO)NC(=O)[C@H](C(C)(C)O)NC(=O)[C@H](CC3CCCCC3)NC(=O)[C@H](Cc3c[nH]cn3)NC(=O)[C@@H](CC(C)C)NC(=O)[C@H](CCCN)NC(=O)[C@H](Cc3ccc(OCC(=O)O)cc3)NC(=O)[C@H](Cc3ccc(-c4ccccc4)cc3)NC(=O)[C@H](Cc3ccc(OCC(=O)O)cc3)NC2=O)c1` [Compound 2876] ({CH2CO}-[Dab]Y(Carboxymethyl)D[Phe(3-Me)]Y(Carboxymethyl)[Bip]Y(Carboxymethyl)[Orn][dL]H[Cha][Val(3-OH)]SC[Dab][AEEA]-{NH(CH2)14COOH}; thioether N-14), the IC50 came out at 212 nM.
In the case of `CCC[C@@H]1NC(=O)CSC[C@@H](C(=O)N[C@@H](CCN)C(=O)NCCOCCOCC(=O)NCCCCCCCCCCC(=O)O)NC(=O)[C@H](CO)NC(=O)[C@H](C(C)(C)O)NC(=O)[C@H](CC2CCCCC2)NC(=O)[C@H](CCN)NC(=O)[C@@H](CC(C)C)NC(=O)[C@H](CCCN)NC(=O)[C@H](Cc2ccc(C(=O)O)cc2)NC(=O)[C@H](Cc2ccc(-c3ccccc3)cc2)NC(=O)[C@H](Cc2ccc(C(=O)O)cc2)NC(=O)[C@H](Cc2cccc(C)c2)NC(=O)[C@H](CC(=O)O)NC(=O)[C@H](Cc2ccc(OCC(=O)O)cc2)NC1=O` [Compound 2877] ({CH2CO}-[Nva]Y(Carboxymethyl)D[Phe(3-Me)][Phe(4-COOH)][Bip][Phe(4-COOH)][Orn][dL][Dab][Cha][Val(3-OH)]SC[Dab][AEEA][Aun]-OH; thioether N-14) it was 1.5 nM.
`CC[C@@H]1NC(=O)CSC[C@@H](C(=O)N[C@@H](CCN)C(=O)NCCOCCOCC(=O)NCCCCCCCCCCC(=O)O)NC(=O)[C@H](CO)NC(=O)[C@H](C(C)(C)O)NC(=O)[C@H](CC2CCCCC2)NC(=O)[C@H](CCN)NC(=O)[C@@H](CC(C)C)NC(=O)[C@H](CCCN)NC(=O)[C@H](Cc2ccc(OCC(=O)O)cc2)NC(=O)[C@H](Cc2ccc(-c3ccccc3)cc2)NC(=O)[C@H](Cc2ccc(OCC(=O)O)cc2)NC(=O)[C@H](Cc2cccc(C)c2)NC(=O)[C@H](CC(=O)O)NC(=O)[C@H](Cc2ccc(OCC(=O)O)cc2)NC1=O` [Compound 2879] ({CH2CO}-[Abu]Y(Carboxymethyl)D[Phe(3-Me)]Y(Carboxymethyl)[Bip]Y(Carboxymethyl)[Orn][dL][Dab][Cha][Val(3-OH)]SC[Dab][AEEA][Aun]-OH; thioether N-14): the IC50 was 2.7 nM.
Regarding `CC[C@@H]1NC(=O)CSC[C@@H](C(=O)N[C@@H](CCN)C(=O)NCCOCCOCC(=O)NCCOCCOCC(=O)NCCCCCCCCCCC(=O)O)NC(=O)[C@H](CO)NC(=O)[C@H](C(C)(C)O)NC(=O)[C@H](CC2CCCCC2)NC(=O)[C@H](CCN)NC(=O)[C@@H](CC(C)C)NC(=O)[C@H](CCCN)NC(=O)[C@H](Cc2ccc(C(=O)O)cc2)NC(=O)[C@H](Cc2ccc(-c3ccccc3)cc2)NC(=O)[C@H](Cc2ccc(C(=O)O)cc2)NC(=O)[C@H](Cc2cccc(C)c2)NC(=O)[C@H](CC(=O)O)NC(=O)[C@H](Cc2ccc(OCC(=O)O)cc2)NC1=O` [Compound 2882] ({CH2CO}-[Abu]Y(Carboxymethyl)D[Phe(3-Me)][Phe(4-COOH)][Bip][Phe(4-COOH)][Orn][dL][Dab][Cha][Val(3-OH)]SC[Dab][AEEA][AEEA][Aun]-OH; thioether N-14), the IC50 came out at 1.6 nM.
